# Columns and labels:
# Assay type in all cases: cell-based
# [1] = test system: transglutaminase 1 (TGM1); assay: Barrier renewal, microneedle ex vivo skin model: TGM1 immunohistochemistry; details: 500 μM of each peptide in media; 7-day culture; microneedled human skin explants
# Excerpt: (§1) Fresh post-abdominoplasty normal human skin samples were acquired from BioIVT Inc. (Westbury, NY). Tissue was defatted and cleaned of blood residue. Tissue was then subjected to treatment using a microneedling pen (36-pin needles, Dr. Pen A6 Cartridges Tips, Dr. Pen Inc., San Jose, CA, USA) with a needle length of 1.5 mm. Tissue was subjected to 5 passes of the microneedle. Following treatment, 1.2 cm diameter skin biopsies were created and cultured at the air-liquid interface. Skin explants not subjected to microneedling served as the untreated control group. Control and microneedle control samples were cultured in Dulbecco's Modified Eagle's Medium (650 μL per well, DMEM with 10% fetal bovine serum and 1% penicillin-streptomycin) at 37° C. and 5% CO2. Treated microneedle samples with the peptides were cultured in DMEM with 10% fetal bovine serum, 1% penicillin-streptomycin. 500 uM of each peptide was dissolved into the media. Treatment medium was changed every other day with the exception of weekends. Following a 7-day culture period, all biopsies were processed for histological and immunohistochemical analysis. Skin explants were processed for hematoxylin and eosin (H&E) staining and immunohistochemical staining against filaggrin (FLG) and transglutaminase 1 (TGM1) according to standard protocol (HistoWiz, Brooklyn, NY).
# [2] = test system: normal human skin samples; assay: Ex vivo chronic inflammation model (CSC): H&E histology; details: 500 μM of each peptide; cell stimulation cocktail (CSC); 7-day culture; human skin explants
# Description: Fresh post-abdominoplasty normal human skin samples were acquired from BioIVT Inc. (Westbury, NY). Tissue was defatted and cleaned of blood residue. 1.2 cm diameter skin biopsies were created and cultured at the air-liquid interface. Skin explants not subjected to the inflammatory stimulant served as the untreated control group. Control samples were cultured in Dulbecco's Modified Eagle's Medium (650 μL per well, DMEM with 10% fetal bovine serum and 1% penicillin-streptomycin) at 37° C. and 5% CO2. Treated microneedle samples with the peptides were cultured in DMEM with 10% fetal bovine serum, 1% penicillin-streptomycin with a 2× dilution of cell stimulation cocktail (CSC) 500×. Samples treated with the peptide contained 500 μM of each peptide dissolved into the media. Fresh stimulants were made each time replenishing the treatment medium every other day with the exception of weekends. Following a 7-day culture period, all biopsies were processed for histological and immunohistochemical analysis. Skin explants were processed for hematoxylin and eosin (H&E) staining and immunohistochemical staining against filaggrin (FLG) and transglutaminase 1 (TGM1) according to standard protocol (HistoWiz, Brooklyn, NY).
# [3] = test system: Adult Normal Human Epidermal Keratinocytes; assay: Differential gene expression (RNA sequencing) in keratinocytes treated with walnut peptides; details: 100 uM or 500 uM peptide in culture media
# Description: Peptide I, II, and III were investigated for their ability to influence gene expression at concentration at 100 μM abd 500 μM for cells and 250 μM for reconstructed human epidermis (RHE).
# Adult Normal Human Epidermal Keratinocytes (Lot 80819221, Passage 3, ATCC) were expanded and seeded into a 6-well plate at a density of 300,000 cells/well. Cells were grown in Dermal Cell Basal Medium (ATCC PCS-200-030) supplemented with one Keratinocyte Growth Kit (ATCC PCS-200-040). Cells attached overnight and then culture media was aspirated and replaced with media containing either 100 uM or 500 uM of Peptide I, Peptide II, or Peptide III. Cells were cultured for […] with treatment with renewal of treatment medium every other day with the exception of weekends. Following the 7-day incubation period, cells were trypsinized and the cell pellet was snap-frozen using liquid nitrogen. Cells then underwent RNA sequencing. The log 2 fold change for each treatment group compared to untreated control samples for differentially expressed genes (DEGs) related to skin barrier were analyzed. Fold change was plotted via heatmap to show upregulation or downregulation of these genes. Microsoft Excel and GraphPad Prism were used for additional analysis and data presentation. The results are shown in the heatmap of FIG. 1.
# filaggrin (FLG) = assay: Barrier renewal, microneedle ex vivo skin model: filaggrin immunohistochemistry; details: 500 μM of each peptide in media; 7-day culture; microneedled human skin explants
# Excerpt: as §1
substance,measurement,setting,value
Lys-Val-Pro-Pro-Leu-Leu-Tyr (KVPPLLY) (printed: Lys-Val-Pro-Pro-Leu-Leu-Tyr) [Peptide III],expression and localization of TGM1 after microneedling,[1],increase the expression of TGM1 and localization
same,"epidermal stress, spongiosis/vacuole formation induced by CSC (H&E histology, FIG. 4)",[2],ameliorated
same,"differentially expressed genes (DEGs) related to skin barrier, log 2 fold change compared to untreated control (FIG. 1)",[3],strong benefits to the skin barrier on a cellular level at both concentrations tested
same,filaggrin expression after microneedling,filaggrin (FLG),increase filaggrin expression
Thr-Trp-Leu-Pro-Leu-Pro-Arg (TWLPLPR) (printed: Thr-Trp-Leu-Pro-Leu-Pro-Arg) [Peptide I],expression and localization of TGM1 after microneedling,[1],increase the expression of TGM1 and localization
same,"epidermal stress, spongiosis/vacuole formation induced by CSC (H&E histology, FIG. 4)",[2],ameliorated
same,"differentially expressed genes (DEGs) related to skin barrier, log 2 fold change compared to untreated control (FIG. 1)",[3],showed an influence at the higher concentration
same,filaggrin expression after microneedling,filaggrin (FLG),increase filaggrin expression
Tyr-Val-Leu-Leu-Pro-Ser-Pro-Lys (YVLLPSPK) (printed: Tyr-Val-Leu-Leu-Pro-Ser-Pro-Lys) [Peptide II],expression and localization of TGM1 after microneedling,[1],increase the expression of TGM1 and localization
same,"epidermal stress, spongiosis/vacuole formation induced by CSC (H&E histology, FIG. 4)",[2],ameliorated
same,"differentially expressed genes (DEGs) related to skin barrier, log 2 fold change compared to untreated control (FIG. 1)",[3],strong benefits to the skin barrier on a cellular level at both concentrations tested
same,filaggrin expression after microneedling,filaggrin (FLG),increase filaggrin expression

# Source: patent publication US20250213646A1, “BIOACTIVE WALNUT PEPTIDES AND COMPOSITIONS FOR TREATING SKIN” (L'OREAL, priority 2024, published 2025)
